Results reported in patent publication US20170258871A1, “COMBINED USE OF A TRKA INHIBITOR AND AN EPHA2 INHIBITOR FOR USING IN THE TREATMENT OF SOLID CANCERS, AND METHOD FOR THE PROGNOSIS OF SURVIVAL OF A PATIENT WHO HAS A SOLID CANCER” (UNIVERSITE DES SCIENCES ET TECHNOLOGIES DE LILLE, priority 2014, published 2017).

What was measured:
[1] = tested on: EphA2; assay: Western blot of EphA2 expression after siRNA; format: cell-based; conditions: MDA-MB-231 HA-TrkA transfected with siEphA2
Description: D. Cells MDA-MB-231 HA-TrkA were transfected with siEphA2 and then treated with proNGF N.C. (30 min). The recruitment of the sortilin and EphA2 was determined after anti-HA immunoprecipitation.
The sequences of siRNA used against EphA2 (siEphA2) at 100 pmol for each transfection, and against TrkA (pool of 3 siTrkA 1, 2 and 3) are given in table 1. The transfections of siRNA are produced by means of […]in™ according to the manufacturers instructions (POL409-10, Polyplus transfection, Ozyme, Saint Quentin en Yvelines, France).
After treatment, the cells were lysed (lysis buffer: 40 mM HEPES pH 7.5; 1 mM EDTA pH 8.0; 120 mM NaCl; 10 mM NaPPi; 50 mM NaF; 1.5 mM Na3VO4; 1% Triton X 100; 0.1% SDS; 1 mM PMSF; 10% glycerol and 1/100 th of protease inhibitor cocktail (Sigma) (20 min; 4° C.)). The lysates were recovered and clarified by centrifugation (12,000 g; 10 min; 4° C.). The supernatant was then stored at −80° C. until use. The protein extracts were diluted to 2 μg·μL−1 in a Laemmli 1× buffer (7 min; 100° C.) then deposited and separated on SDS-PAGE (concentration gel 3.6% acrylamide and separation gel 7.5% to 10% acrylamide (thickness 1 mm); 180 V; 10 min then 200 V constant; until output of the migration front). […] The membranes were placed in an image analyser (LAS 4000; Fuji) connected to a computer which allowed image generation (software Image Reader LAS 4000). […]

[2] = tested on: MDA-MB-231 HA-TrkA tumours; assay: Xenograft of MDA-MB-231 HA-TrkA in SCID mice, survival (Experiment 2); format: in vivo; conditions: 5 injections (D14-D26), siRNA 7.5 microg/mouse close to the tumour; control 40 days; log-rank P=0.0022
Description: FIG. 9: A study of the inhibition of TrkA and EphA2 on tumour development in vivo. […] The experiments were stopped 31 days after the first injection of the treatment for ethical considerations after the death of the control mice. A) The tumour volumes were evaluated by measuring the length (;) and the width (w) and then calculating the volume using the formula π/6×l×W×(l+w)/2; the Mann and Whitney test was carried out between the control group and CEP-701 (a), between the control groups and siEphA2 (b), between the control groups and CEP-701+siEphA2 (c), and between the groups siEphA2 and CEP-701+siEphA2 (d)*, P<0.05; **, P<0.01; ns: not significant. B) Study of the inhibition of the expression of receptors by siRNA on the overall survival of SCID mice. The tumours were developed without any intervention for 14 days and were then subjected to 5 injections (D14, DI7, D20, D23, D26) of SiTrkA (7.5 microg/mouse), siEphA2 (7.5 microg/mouse), siTrkA (7.5 microg/mouse) and siEphA2 (7.5 microg/mouse). […] The tumour volumes were evaluated by measuring the length (l) and width (w) and then calculating the volume using the formula π/6×l×W×(l+w)/2. […] Significance was measured using the log-rank test (P=0.0022). […]
Experiment 2: The mice used were six-week old SCID females. […] The tumour volume was measured according to the following formula: π/6×length×width×(width+length)/2. […]

[3] = tested on: SQ20B cells; assay: In vitro invasion test (Boyden chamber), SQ20B; format: cell-based; conditions: NGF 16 nM or proNGF N.C. 0.5 nM, untreated cells = 100%
Description: (0.5 nM) for a period of 20 hours. The untreated cells represent the control and determine a base invasion of 100%.
The Boyden Chambers (Transwell®; BD Biosciences; France) were recovered from a biological matrix (type 1 collagen from rats diluted to 400 μg·mL-1 in EMEM-0.1% FCS medium; Millipore). The cells were then seeded with 100,000 cells/well on PET membranes (polyethylene terephtalate; dia.: 10.5 mm; porosity: 8 μm) of Boyden Chambers and held in an EMEM-0.1% FCS medium. […] (0.5 nM) in the lower part. After 20 hours of culture, they were washed twice with PBS 1× and fixed (ice cold methanol; 15 min; −20° C.). The non-invasive cells (upper face of the Transwell®) were eliminated by scraping. The number of cells was estimated after staining with Hoechst 33 258 (1 mM; 30 min; 20° C.) by counting the nuclei thereof using fluorescence microscopy on a total of 5 five randomly chosen fields (lens 10×; λ-excitation: 345 nm; λ-emission: 478 nm; Eclipse Ti) using the ImageJ software. Each experiment was performed in triplicate. Statistical analysis of the results was performed by analysis of variance ANOVA (Bonferroni post-hoc test).

## siEphA2: siRNA against EphA2, GCAAGGAAGUGGUACUGCUGGACUU (SEQ ID NO: 1) (listed as RNA, chemistry not given here)
[1]
  expression of EphA2 protein: completely abolished the expression
[2]
  median survival: 49 days

## NGF: Nerve Growth Factor; recombinant human β NGF supplied by Scil Proteins
[3]
  cell invasion under growth factor: induced
